{"source": "patent US20070149400A1", "about": "“6-(2-Chloro-4-alkoxyphenyl)triazolopyrimidines, their preparation and their use for controlling harmful fungi, and compositions comprising these compounds” (priority 2003, published 2007)", "system": "Alternaria solani", "test": "Activity against early blight of tomato caused by Alternaria solani (protective spray, potted plants)", "type": "in vivo", "settings": "63 ppm active compound, tomato cultivar Goldene Prinzessin, infected next day, assessed after 5 days; untreated plants 90% infected", "experimental": "The active compounds were prepared as a stock solution comprising 0.25% by weight of active compound in acetone or DMSO. 1% by weight of the emulsifier Uniperol® EL (wetting agent having emulsifying and dispersing action based on ethoxylated alkylphenols) was added to this solution, and the mixture was diluted with water to the desired concentration. Leaves of potted plants of the cultivar “Goldene Prinzessin” were sprayed to run off point with an aqueous suspension having the concentration of active compounds stated below. The next day, the leaves were infected with an aqueous […] suspension of Alternaria solani in 2% biomalt solution having a density of 0.17×10^6 spores/ml. The plants were then placed in a water-vapor-saturated chamber at temperatures of between 20 and 22° C. After 5 days, the disease on the leaves of the untreated, but infected control plants had developed to such an extent that the infection could be determined visually in %."}
{"smiles": "CCC(C)Nc1c(-c2ccc(OC)cc2Cl)c(Cl)nc2ncnn12", "note": "(racemic) [Compound I-3, 5-chloro-6-(2-chloro4-methoxyphenyl)-7-but-2-ylamino-[1,2,4]-triazolo[1,5-a]pyrimidine]", "values": [{"measurement": "infection of the leaves, determined visually in %", "result": "no infection"}]}
